Entries after “also recorded” stand apart in the source; their conditions may differ.
Legend:
[1] = test system: retinal endothelial cells (REC); experiment: transwell (Boyden chamber) cell migration assay, VEGF-stimulated RECs; type: cell-based, human; conditions: 24 hours of VEGF stimulation; +100, +500 nM
Description: Two methods of evaluating VEGF-induced REC migration were used to assess the impact of compound (II-4) on paxillin-mediated migration: the scratch assay and the transwell (Boyden chamber) cell migration assay. To test if paxillin inhibition would reduce VEGF-induced REC migration, RECs were wounded and treated with VEGF ([…]) +/− compound (II-4) ([…]). Wound closure was monitored by phase microscopy over 24 hours and area of wound closure was calculated using the sophisticated image analysis tools in Adobe Photoshop. Cells were then fixed and nuclei were stained using DAPI to show extent of cell migration.
Compound (II-4) was further investigated around these concentrations using the transwell migration assay (FIG. 17B).
FIG. 17: REC migration. A) Increasing concentrations of compound (II-4) inhibit VEGF-induced migration in a scratch wound assay; [Serum Free-control, VEGF (100 ng/mL), VEGF+100 nM, 500 nM, 10 μM, 100 μM] (IC50≈180 ηM; n=6/group). Cells were stained with DAPI for representative images. B) RECs seeded onto transwell membranes were stimulated with VEGF+ vehicle or compound (II-4) for 24 hrs. Cells were removed from the topside of membrane and migrated cells were stained with DAPI [Serum-Free (SF), VEGF, +100, +500 nM, respectively]. Cell number was measured using fluorescence microscopy. All data are mean±SD (*, # P<0.001)

[2] = Microsomal stability, pooled rat liver microsomes; type: in vitro ADME; conditions: 1 μM, 37° C., 60 min
Description: (§1) Microsomal stability of compound (II-4) (1 μM) was assessed in pooled liver microsomes (human, mouse, and rat) (FIG. 7). Briefly, compound (II-4) was incubated in duplicate with microsomes at 37° C. Reactions contained microsomal protein in 100 mM potassium phosphate, 2 mM NADPH, 3 mM MgCl2, pH 7.4. NADPH was omitted to detect NADPH-free degradation. At 60 minutes, the reaction was stopped by adding ice-cold methanol containing internal standard. Samples were centrifuged to remove precipitated protein, and the supernatants were analyzed by LC/MS/MS to quantitate the remaining parent.
as §1, with “23).” for “7).”, “min,” for “minutes,”, “(+” for “containing”, “standard).” for “standard.”

[3] = test system: FAK (Y397, Y576/577, Y925); experiment: Western blot of VEGF-induced FAK phosphorylation in REC; type: cell-based, human; conditions: REC under VEGF; compound (II-4) 500 nM, SU6656 1 μM
Description: REC, Mel 270, OMM 2.5 under Hepatocyte Growth Factor (HGF) or Vascular Endothelial Growth Factor (VEGF) stimulation conditions: Cell lysates were collected in RIPA lysis buffer (50 mM Tris-HCl, pH 7.4, 150 mM NaCl, 2 mM EDTA, 1% Nonidet P-40, 0.1% SDS) with protease 1× inhibitor cocktail (Roche; Indianapolis, Ind.). Lysates were kept on ice and centrifuged at 10,000×g×10 minutes and total protein was measured using the BCA assay (Pierce, Rockford, Ill.). Protein samples were mixed with 4×LDS loading buffer with 2.5% 2-mercaptoethanol (Sigma-Aldrich), heated to 70° C. for 10 minutes, and loaded on NuPAGE 4-12% Bis-Tris gel (Invitrogen, Carlsbad, Calif.). Immunoblotting was performed with nitrocellulose membranes (Bio-Rad, Hercules, Calif.) at 170-mA start and 110-mA end at 25 V for two hours in NuPAGE transfer buffer (Invitrogen) containing 20% methanol. Membranes were blocked using Odyssey blocking buffer (LI-COR; Lincoln, Nebr.) for one hour at room temperature with gentle shaking Membranes were then incubated at 4° C. with specific primary antibodies (1:1000) overnight. Cellular protein was normalized using rabbit-GAPDH or mouse-α-Tubulin [1:20,000] (Cell Signaling, Danvers, Mass.; LI-COR, respectively). […] Dual-channel infrared scan and quantitation of immunoblots were conducted using the ODYSSEY Sa infrared imaging system with Image Studio (Ver. 3.1.4) (LI-COR). […]

microsomal stability (metabolism by cytochrome P-450 enzymes) [2]: rapidly metabolized
Compound: COc1cc(C2OC(=O)Nc3c2ccc2ccccc32)cc(OC)c1OC (stereo not drawn) [compound II-4]
migration of RECs in transwell migration assay [1]: significant decrease
VEGF-induced FAK activation (Y397, Y925) [3]: independent of both FAK Y397 autophosphorylation and Src-driven FAK Y925; also recorded: not FAK Y925 activation
